In US12186365B2, “Composition for regulating cell division comprising FCHO1 modulator, and method for regulating cell division using same” (SEOUL NATIONAL UNIVERSITY R&DB FOUNDATION, priority 2015, dated 2025):
Marks after values point to notes of the source that are not given here. Each block holds one molecule with its values, some of them ahead of it. Ends that are not written are not given here. Peptide text beside a SMILES is read from it. * marks the point of attachment. Cbz = O=C(OCc1ccccc1)*

Legend:
cells [1] = assay: Real-time cell growth measurement using Xcelligence; type: cell-based; conditions: peptides treated in 10 μM, FIG. 30
Experimental: Cell viability was measured using Xcelligence for in real time observation, and the peptides were treated in 10 μM. […] The results are illustrated in FIG. 30.

FCHo1 cleavage = assay: Immunoblot of FCHo1 cleavage in A549 cell extract with or without MG132; type: cell-based, human; conditions: 1 μM MG132, 16 hours, A549 cells
Experimental: The cells were dissolved in IP dissolution buffer for 30 min at 4° C. After centrifugation at 17,000×g for 30 minutes, the concentration of the protein was measured, and the same amount of lysate was used for immunoprecipitation. The immunoprecipitation was carried out overnight at 4° C. using anti-FLAG M^2 affinity gel (Sigma-Aldrich). The precipitate was washed three times with washing solution, and the precipitated proteins were separated using SDS-PAGE. Western blotting was carried out using anti-rabbit antibodies conjugated with specific antibodies and secondary anti-mouse IgG Veriblot or horseradish peroxidase. The results were visualized using a chemiluminescence detector (Atto Ez-Capture MG).
To test the potential involvement of specific proteases to cleave FCHo1, the cells were treated with 1 μM MG132, a protease inhibitor for 16 hours. Immunoblotting of the A549 cell extract was performed in the presence or absence of the MG132 protease inhibitor, and the results are illustrated in FIG. 5.

cells [2] = assay: Intracellular uptake of biotin-conjugated peptides (streptavidin-488, CLSM); type: cell-based; conditions: biotin-conjugated peptide, no carrier or CPP, FIG. 29
Experimental: Biotin-conjugated peptides were treated to cells and fixed on the cells, followed by reaction with streptavidin-488 fluorescent dye, followed by observation with CLSM. The results are illustrated in FIG. 29.

Akt1 = biological target: T1, Akt1 (Homo sapiens, UniProt P31749); assay: In vitro binding of biotin-conjugated FCHo1-derived peptides to Akt1 (streptavidin plate, cell lysates, Akt1 antibody); conditions: biotin-conjugated peptide on streptavidin plate, FIG. 28
T1 construct: After treating with the cell lysates; endogenous in cells
T1 sequence (P31749 whole entry): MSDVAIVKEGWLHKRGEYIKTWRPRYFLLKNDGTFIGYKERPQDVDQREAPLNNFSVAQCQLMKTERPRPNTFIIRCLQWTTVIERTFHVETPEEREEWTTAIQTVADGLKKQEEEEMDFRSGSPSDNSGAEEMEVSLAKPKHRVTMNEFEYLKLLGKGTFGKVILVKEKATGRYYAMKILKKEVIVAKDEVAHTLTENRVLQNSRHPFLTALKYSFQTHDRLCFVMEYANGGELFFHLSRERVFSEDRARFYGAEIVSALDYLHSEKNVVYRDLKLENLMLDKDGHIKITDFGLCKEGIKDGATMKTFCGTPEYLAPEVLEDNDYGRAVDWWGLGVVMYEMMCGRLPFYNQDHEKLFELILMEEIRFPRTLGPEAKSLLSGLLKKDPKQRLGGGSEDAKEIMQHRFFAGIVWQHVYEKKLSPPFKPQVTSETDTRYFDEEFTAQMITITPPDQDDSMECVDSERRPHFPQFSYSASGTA
Excerpt: To confirm the binding affinity between Akt1 and Akt1 motif-containing FCHo1 amino acid sequence-derived peptides, biotin was conjugated to peptides to complete the synthetization. The peptides were reacted and attached to on the streptavidin-attached plate. After treating with the cell lysates, the binding affinity of the peptide and Akt1 was confirmed by the Akt1 antibody. The experiment process and its result of confirming in vitro binding affinity of Akt1 according to respective peptides derived from FCHo1 binding sites are illustrated in FIG. 28.

mouse FCHo1 = assay: FCHo1 inhibitory effect of shRNA sequences acting on mouse FCHo1; conditions: among four shRNA sequences, SEQ ID NOs: 1 to 4
Experimental: (§1) H&E slides were prepared to confirm whether adenoma and hyperplasia were reduced. The shFCHo1 was used for FCHo1 cleavage inhibition. The sequence thereof is represented in SEQ ID NOs: 1 to 4 based on FIG. 26. […] Therefore, this was used to perform this experiment.

[3] = test system: lung cancer model mouse (K-ras); assay: Anticancer effect of aerosol-delivered lentiviral FCHo1 vectors in lung cancer model mouse; type: in vivo; conditions: K-ras female mice, lentiviral vector inhaled 8 times for 4 weeks, H&E slides, 5 mice per group
Experimental: Lentiviral vectors were prepared for the full-length, mutation type and deletion type of FCHo1 and transferred to lung cancer model mouse in a non-invasive aerosol method. Then their anticancer effects were confirmed. Example 8 confirmed that the sites involved in FCHo1 cleavage in human cells were FCHo1^S570A and FCHo1^del563-564. Therefore, corresponding positions were confirmed in mouse FCHo1. It was confirmed that S570A corresponded to S554A and del563-564 corresponded to del544-545. […] Then, the anticancer effects thereof were compared. The results are illustrated in FIG. 25.
as §1

A549 cells = assay: Midbody formation in A549 cells expressing FCHo1 constructs (CLSM, MKLP1 staining); type: cell-based, human; conditions: A549 cells in mitosis, compared with wild-type FCHo1
Experimental: A549 cells were placed in 8-well chamber cover glasses or high-precision cover glasses and were fixed with 3% paraformaldehyde for 10 minutes at room temperature, permeabilized with 0.5% TRITON® X-100 (Sigma-Aldrich) for 5 min, blocked for 30 minutes. Then, the cells were incubated with primary or secondary antibodies in blocking solution (PBS with 0.1% saponin and 3% BSA). Alexa Fluor 647 conjugated anti-rabbit secondary antibody and an oxygen scavenging system (0.5 mg/ml glucose oxidase, 40 μg/ml catalase, 10% glucose, pH 7.4) were used for stochastic optical reconstruction microscopy (dSTORM) imaging. Before imaging, 30 mM mercaptoethylamine ([…]; Sigma) was added to obtain a final thiol concentration of 10-200 mM. All dSTORM and SIM images were obtained from Carl Zeiss ELYRA PS.1 (super-resolution microscopy), and all CLSM images were obtained from the Carl Zeiss LSM710 (confocal laser scanning microscope). […]
In the analysis using the synchronization method, the cells were stained with MKLP1 antibody for the central spindle or midbody type analyses. The rates of cells in anaphase (central spindle) and telophase (midbody) were quantified via CLSM images: FCHo1 siRNA (n=318), wt FCHo1 (n=702), FCHo1 Δ563-564 (n=756) and FCHo1 Δ531-589 (n=1952). […]

Molecule: 560-567: peptide derived from the FCHo1 amino acid sequence, residues 560-567 (PPRRLRSR; UniProt O14526 560-567, looked up, fragment)
inhibitory effect on cell growth (cells [1]): inhibitory effects on the cell growth

Molecule: CC(C)C[C@@H](C=O)NC(=O)[C@H](CC(C)C)NC(=O)[C@H](CC(C)C)NC(=O)OCc1ccccc1 [MG132] (Cbz-Leu-Leu-Leu-aldehyde)
cleaved FCHo1 protein (immunoblot) (FCHo1 cleavage): completely disappeared

Molecule: PPRRLRSRKVSC [560-571, PPRRLRSRKVSC]
absorption into a cell (cells [2]): increase in absorption into a cell in a concentration-dependent manner

Akt1 binding affinity (Akt1): significantly increased
Molecule: RRLRSRKVSC (FCHo1 fragment) [562-571]
inhibitory effect on cell growth (cells [1]): inhibitory effects on the cell growth

Molecule: shFCHo1: shRNA acting on mouse FCHo1, SEQ ID NO: 2 (GAGAGAACACCAGCCAGAAUCUCUUCUGGCUGGUGUUCUCUC; hairpin, further chemistry not given here)
FCHo1 inhibitory effect (mouse FCHo1): most significant FCHo1 inhibitory effect
No. of Adenocarcinoma [3]: 0.20 ± 0.45
No. of Adenoma [3]: 0.60 ± 0.55
No. of hyperplasia foci [3]: 0.60 ± 0.55**^,#

B1: Δ563-564: human FCHo1 with 563-564aa deleted (MMP-9 cleavage site), expressed in A549 cells (protein)
chain: MSYFGEHFWGEKNHGFEVLYHSVKQGPISTKELADFIRERATIEETYSKAMAKLSKLASNGTPMGTFAPLWEVFRVSSDKLALCHLELTRKLQDLIKDVLRYGEEQLKTHKKCKEEVVSTLDAVQVLSGVSQLLPKSRENYLNRCMDQERLRRESTSQKEMDKAETKTKKAAESLRRSVEKYNSARADFEQKMLDSALRFQAMEETHLRHMKALLGSYAHSVEDTHVQIGQVHEEFKQNIENVSVEMLLRKFAESKGTGREKPGPLDFEAYSAAALQEAMKRLRGAKAFRLPGLSRREREPEPPAAVDFLEPDSGTCPEVDEEGFTVRPDVTQNSTAEPSRFSSSDSDFDDEEPRKFYVHIKPAPARAPACSPEAAAAQLRATAGSLILPPGPGGTMKRHSSRDAAGKPQRPRSAPRTSSCAERLQSEEQVSKNLFGPPLESAFDHEDFTGSSSLGFTSSPSPFSSSSPENVEDSGLDSPSHAAPGPSPDSWVPRPGTPQSPPSCRAPPPEARGIRAPPLPDSPQPLASSPGPWGLEALAGGDLMPAPADPTAREGLAAPPRRSRKVSCPLTRSNGDLSRSLSPSPLGSSAASTALERPSFLSQTGHGVSRGPSPVVLGSQDALPIATAFTEYVHAYFRGHSPSCLARVTGELTMTFPAGIVRVFSGTPPPPVLSFRLVHTTAIEHFQPNADLLFSDPSQSDPETKDFWLNMAALTEALQRQAEQNPTASYYNVVLLRYQFSRPGPQSVPLQLSAHWQCGATLTQVSVEYGYRPGATAVPTPLTNVQILLPVGEPVTNVRLQPAATWNLEEKRLTWRLPDVSEAGGSGRLSASWEPLSGPSTPSPVAAQFTSEGTTLSGVDLELVGSGYRMSLVKRRFATGMYLVSC
modifications: Fcho1 delta563-564
notes: human FCHo1 with 563-564aa deleted (MMP-9 cleavage site), expressed in A549 cells
midbody formation (A549 cells): inhibited the midbody formation
